Experimental data reported in ChEMBL document CHEMBL3137667, “[Drug-induced liver injury; fourteenth updated edition of the bibliographic database of liver injuries and related drugs]” (Gastroenterol Clin Biol, 2004).

Columns and labels:
[1] = human
[2] = human, serum
[3] = Times to onset, minimal and maximal, observed in the indexed observations. [column 'DELAI' in source]; settings: human
[4] = human; remark: listed apart in the source
[5] = human; remark: listed apart in the source
[6] = human; remark: listed apart in the source
[7] = Highest frequency of acute liver toxicity observed during clinical trials, expressed as a percentage. [column '% AIGUE' in source]; settings: human
[8] = Presence of at least one case with successful reintroduction. [column 'REINT' in source]; settings: human
[9] = human, serum, 4383 h
[10] = human, serum; remark: listed apart in the source
[11] = human; remark: listed apart in the source
[12] = Comments (NB not yet translated). [column 'COMMENTAIRES' in source]; settings: human
[13] = Highest frequency of moderate liver toxicity observed during clinical trials, expressed as a percentage. [column '% BIOL' in source]; settings: human
[14] = human; remark: listed apart in the source
[15] = human; remark: listed apart in the source
[16] = human; remark: listed apart in the source
[17] = human; remark: listed apart in the source
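Wherever Hepatotoxicity (association with vascular disease) is given: count of indexed literature references reporting vascular liver injury in humans, e.g. peliosis hepatitis, hepatic veno-occlusive disease or Budd-Chiari syndrome.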
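Wherever Hepatotoxicity (benign tumour) is given: value is a count of indexed literature references citing a benign tumour confirmed by histopathology.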
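Wherever Hepatotoxicity (choleostasis) is given: human cholestatic liver injury, shown by histopathology or by peak ALT or AST elevation over alkaline phosphatase ratio below 2, value counts indexed literature reports.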
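Wherever Hepatotoxicity (chronic liver disease) is given: chronic liver injury confirmed by histopathology or persistently raised serum aminotransferase activity beyond 6 months, value given as the count of indexed literature references.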
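Wherever Hepatotoxicity (cirrhosis) is given: value is a count of indexed literature references reporting cirrhosis confirmed by histopathology.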
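Wherever Hepatotoxicity (cytolytic) is given: human cytolytic liver injury, shown by histopathology or by a ratio above 5 of peak ALT or AST elevation to alkaline phosphatase elevation, value counts indexed references.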
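Wherever Hepatotoxicity (granulomatous hepatitis) is given: value is a count of indexed literature references reporting granulomatous liver disease confirmed by histopathology.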
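Wherever Hepatotoxicity (malignant tumour) is given: malignant tumour confirmed by histopathology, value gives the count of indexed literature references reporting it.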
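Wherever Hepatotoxicity (severe hepatitis) is given: human clinical data: severe hepatitis, meaning potentially life-threatening liver failure or clinically observed cases, the value counts how many indexed literature references report it.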
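Wherever Hepatotoxicity (steatosis) is given: steatosis confirmed by histopathology, value is the count of indexed references.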

Compound: CC(NC(C)(C)C)C(=O)c1cccc(Cl)c1 (centres undefined) [BUPROPION]
- Hepatotoxicity (steatosis) [1]: 0
- Hepatotoxicity (moderate) [2]: 1
- Hepatotoxicity (time to onset) [3]: 4 days - 80 days
- Hepatotoxicity (malignant tumour) [4]: 0
- Hepatotoxicity (cytolytic) [5]: 4
- Hepatotoxicity (severe hepatitis) ([6]; Liver): 1
- Hepatotoxicity (acute) ([7]; Liver): 0%
- Hepatotoxicity (successful reintroduction) [8]: yes
- Hepatotoxicity (chronic liver disease) [9]: 0
- Hepatotoxicity (acute) [10]: 4
- Hepatotoxicity (association with vascular disease) [11]: 0
- Hepatotoxicity (comment) [12]: PERICHOLANGITE
- Hepatotoxicity (moderate) ([13]; Liver): 0%
- Hepatotoxicity (cirrhosis) [14]: 0
- Hepatotoxicity (benign tumour) [15]: 0
- Hepatotoxicity (choleostasis) [16]: 2
- Hepatotoxicity (granulomatous hepatitis) [17]: 0

Compound: CC(CCc1ccccc1)NCC(O)c1ccc(O)c(C(N)=O)c1 (centres undefined) [LABETALOL]
- Hepatotoxicity (steatosis) [1]: 0
- Hepatotoxicity (moderate) [2]: 5
- Hepatotoxicity (time to onset) [3]: 3 weeks - 6 months
- Hepatotoxicity (malignant tumour) [4]: 0
- Hepatotoxicity (cytolytic) [5]: 6
- Hepatotoxicity (severe hepatitis) [6]: 4
- Hepatotoxicity (acute) [7]: 0.9%
- Hepatotoxicity (successful reintroduction) [8]: yes
- Hepatotoxicity (chronic liver disease) [9]: 0
- Hepatotoxicity (acute) [10]: 6
- Hepatotoxicity (association with vascular disease) [11]: 0
- Hepatotoxicity (comment) [12]: AC_ANTI-N
- Hepatotoxicity (moderate) [13]: 20.5%
- Hepatotoxicity (cirrhosis) [14]: 0
- Hepatotoxicity (benign tumour) [15]: 0
- Hepatotoxicity (choleostasis) [16]: 0
- Hepatotoxicity (granulomatous hepatitis) [17]: 0

Compound: CC(=O)CC(c1ccccc1)c1c(O)c2ccccc2oc1=O (centres undefined) [WARFARIN]
- Hepatotoxicity (steatosis) [1]: 0
- Hepatotoxicity (moderate) [2]: 2
- Hepatotoxicity (time to onset) [3]: 1 week - 2.5 years
- Hepatotoxicity (malignant tumour) [4]: 0
- Hepatotoxicity (cytolytic) [5]: 0
- Hepatotoxicity (severe hepatitis) [6]: 0
- Hepatotoxicity (acute) [7]: 0%
- Hepatotoxicity (successful reintroduction) [8]: yes
- Hepatotoxicity (chronic liver disease) [9]: 0
- Hepatotoxicity (acute) [10]: 6
- Hepatotoxicity (association with vascular disease) [11]: 0
- Hepatotoxicity (comment) [12]: RC/PHENPROCOUMON RUPTURE_HEPATIQUE #S.REYE
- Hepatotoxicity (moderate) [13]: 0%
- Hepatotoxicity (cirrhosis) [14]: 0
- Hepatotoxicity (benign tumour) [15]: 0
- Hepatotoxicity (choleostasis) [16]: 5
- Hepatotoxicity (granulomatous hepatitis) [17]: 0

Compound: CC(C)(C)NC(=O)[C@@H]1CN(Cc2cccnc2)CCN1C[C@@H](O)C[C@@H](Cc1ccccc1)C(=O)N[C@H]1c2ccccc2C[C@H]1O.O
- Hepatotoxicity (steatosis) [1]: 3
- Hepatotoxicity (moderate) [2]: 5
- Hepatotoxicity (time to onset) [3]: 5 hours - 19 months
- Hepatotoxicity (malignant tumour) [4]: 0
- Hepatotoxicity (cytolytic) [5]: 8
- Hepatotoxicity (severe hepatitis) ([6]; Liver): 4
- Hepatotoxicity (acute) ([7]; Liver): 9.1%
- Hepatotoxicity (successful reintroduction) [8]: yes
- Hepatotoxicity (chronic liver disease) [9]: 0
- Hepatotoxicity (acute) [10]: 12
- Hepatotoxicity (association with vascular disease) [11]: 0
- Hepatotoxicity (comment) [12]: REACTIVATION_HVB/HVC LITHIASE
- Hepatotoxicity (moderate) ([13]; Liver): 8%
- Hepatotoxicity (cirrhosis) [14]: 0
- Hepatotoxicity (benign tumour) [15]: 0
- Hepatotoxicity (choleostasis) [16]: 0
- Hepatotoxicity (granulomatous hepatitis) [17]: 0

Compound: CC1(C)S[C@@H]2[C@H](NC(=O)[C@H](C(=O)O)c3ccsc3)C(=O)N2[C@H]1C(=O)O [TICARCILLIN]
- Hepatotoxicity (steatosis) [1]: 0
- Hepatotoxicity (moderate) [2]: 7
- Hepatotoxicity (time to onset) [3]: 2 days - 1 week
- Hepatotoxicity (malignant tumour) [4]: 0
- Hepatotoxicity (cytolytic) [5]: 0
- Hepatotoxicity (severe hepatitis) [6]: 0
- Hepatotoxicity (acute) [7]: 0%
- Hepatotoxicity (successful reintroduction) [8]: yes
- Hepatotoxicity (chronic liver disease) [9]: 0
- Hepatotoxicity (acute) [10]: 0
- Hepatotoxicity (association with vascular disease) [11]: 0
- Hepatotoxicity (comment) [12]: RC/CARBENICILLINE
- Hepatotoxicity (moderate) [13]: 5%
- Hepatotoxicity (cirrhosis) [14]: 0
- Hepatotoxicity (benign tumour) [15]: 0
- Hepatotoxicity (choleostasis) [16]: 0
- Hepatotoxicity (granulomatous hepatitis) [17]: 0

Compound: CCN(CC)CCCC(C)Nc1c2ccc(Cl)cc2nc2ccc(OC)cc12 (centres undefined) [QUINACRINE]
- Hepatotoxicity (steatosis) [1]: 0
- Hepatotoxicity (moderate) [2]: 2
- Hepatotoxicity (time to onset) [3]: 1 week - 4 months
- Hepatotoxicity (malignant tumour) [4]: 0
- Hepatotoxicity (cytolytic) [5]: 2
- Hepatotoxicity (severe hepatitis) [6]: 1
- Hepatotoxicity (acute) [7]: 0.1%
- Hepatotoxicity (successful reintroduction) [8]: yes
- Hepatotoxicity (chronic liver disease) [9]: 0
- Hepatotoxicity (acute) [10]: 4
- Hepatotoxicity (association with vascular disease) [11]: 0
- Hepatotoxicity (comment) [12]: CHOLANGITE
- Hepatotoxicity (moderate) [13]: 0%
- Hepatotoxicity (cirrhosis) [14]: 0
- Hepatotoxicity (benign tumour) [15]: 0
- Hepatotoxicity (choleostasis) [16]: 1
- Hepatotoxicity (granulomatous hepatitis) [17]: 0

Compound: C[C@]12CCC(=O)C=C1CC[C@@H]1[C@@H]2CC[C@@]2(C)[C@H]1CC[C@]2(C)O [METHYLTESTOSTERONE]
- Hepatotoxicity (steatosis) [1]: 0
- Hepatotoxicity (moderate) [2]: 4
- Hepatotoxicity (time to onset) [3]: 1 week - 24 years
- Hepatotoxicity (malignant tumour) [4]: 10
- Hepatotoxicity (cytolytic) [5]: 2
- Hepatotoxicity (severe hepatitis) [6]: 1
- Hepatotoxicity (acute) [7]: 0%
- Hepatotoxicity (successful reintroduction) [8]: yes
- Hepatotoxicity (chronic liver disease) [9]: 0
- Hepatotoxicity (acute) [10]: 30
- Hepatotoxicity (association with vascular disease) [11]: 4
- Hepatotoxicity (comment) [12]: ANGIOSARCOME CHOLESTASE_PROLONGEE CHOLANGITE #CBP PELIOSE
- Hepatotoxicity (moderate) [13]: 32%
- Hepatotoxicity (cirrhosis) [14]: 2
- Hepatotoxicity (benign tumour) [15]: 6
- Hepatotoxicity (choleostasis) [16]: 21
- Hepatotoxicity (granulomatous hepatitis) [17]: 0

Compound: CC(C(=O)O)c1ccc(C(=O)c2ccccc2)s1 (centres undefined) [TIAPROFENIC ACID]
- Hepatotoxicity (steatosis) [1]: 0
- Hepatotoxicity (moderate) [2]: 1
- Hepatotoxicity (time to onset) [3]: 3 weeks - 2 months
- Hepatotoxicity (malignant tumour) [4]: 0
- Hepatotoxicity (cytolytic) [5]: 2
- Hepatotoxicity (severe hepatitis) [6]: 0
- Hepatotoxicity (acute) [7]: 0%
- Hepatotoxicity (successful reintroduction) [8]: yes
- Hepatotoxicity (chronic liver disease) [9]: 0
- Hepatotoxicity (acute) [10]: 3
- Hepatotoxicity (association with vascular disease) [11]: 0
- Hepatotoxicity (comment) [12]: RC/DICLOFENAC
- Hepatotoxicity (moderate) [13]: 3.8%
- Hepatotoxicity (cirrhosis) [14]: 0
- Hepatotoxicity (benign tumour) [15]: 0
- Hepatotoxicity (choleostasis) [16]: 2
- Hepatotoxicity (granulomatous hepatitis) [17]: 0

Compound: STREPTOKINASE
- Hepatotoxicity (steatosis) [1]: 0
- Hepatotoxicity (moderate) [2]: 12
- Hepatotoxicity (time to onset) [3]: 1 day - 1 week
- Hepatotoxicity (malignant tumour) [4]: 0
- Hepatotoxicity (cytolytic) [5]: 5
- Hepatotoxicity (severe hepatitis) [6]: 0
- Hepatotoxicity (acute) [7]: 0%
- Hepatotoxicity (successful reintroduction) [8]: yes
- Hepatotoxicity (chronic liver disease) [9]: 0
- Hepatotoxicity (acute) [10]: 9
- Hepatotoxicity (association with vascular disease) [11]: 0
- Hepatotoxicity (comment) [12]: RUPTURE_HEPATIQUE
- Hepatotoxicity (moderate) [13]: 75%
- Hepatotoxicity (cirrhosis) [14]: 0
- Hepatotoxicity (benign tumour) [15]: 0
- Hepatotoxicity (choleostasis) [16]: 3
- Hepatotoxicity (granulomatous hepatitis) [17]: 0

Compound: COCCc1ccc(OCC(O)CNC(C)C)cc1 (centres undefined) [METOPROLOL]
- Hepatotoxicity (steatosis) [1]: 0
- Hepatotoxicity (moderate) [2]: 3
- Hepatotoxicity (time to onset) [3]: 5 days - 17 days
- Hepatotoxicity (malignant tumour) [4]: 0
- Hepatotoxicity (cytolytic) [5]: 1
- Hepatotoxicity (severe hepatitis) [6]: 0
- Hepatotoxicity (acute) [7]: 0%
- Hepatotoxicity (successful reintroduction) [8]: yes
- Hepatotoxicity (chronic liver disease) [9]: 0
- Hepatotoxicity (acute) [10]: 1
- Hepatotoxicity (association with vascular disease) [11]: 0
- Hepatotoxicity (comment) [12]: ENCEPHALOPATHIE
- Hepatotoxicity (moderate) [13]: 32%
- Hepatotoxicity (cirrhosis) [14]: 0
- Hepatotoxicity (benign tumour) [15]: 0
- Hepatotoxicity (choleostasis) [16]: 0
- Hepatotoxicity (granulomatous hepatitis) [17]: 0

Compound: C[C@]12CC[C@@H]3c4ccc(OC(=O)N(CCCl)CCCl)cc4CC[C@H]3[C@@H]1CC[C@@H]2O [ESTRAMUSTINE]
- Hepatotoxicity (steatosis) [1]: 1
- Hepatotoxicity (moderate) [2]: 3
- Hepatotoxicity (time to onset) [3]: 1 month
- Hepatotoxicity (malignant tumour) [4]: 0
- Hepatotoxicity (cytolytic) [5]: 1
- Hepatotoxicity (severe hepatitis) [6]: 0
- Hepatotoxicity (acute) [7]: 2%
- Hepatotoxicity (successful reintroduction) [8]: yes
- Hepatotoxicity (chronic liver disease) [9]: 1
- Hepatotoxicity (acute) [10]: 2
- Hepatotoxicity (association with vascular disease) [11]: 0
- Hepatotoxicity (comment) [12]: NASH
- Hepatotoxicity (moderate) [13]: 2%
- Hepatotoxicity (cirrhosis) [14]: 0
- Hepatotoxicity (benign tumour) [15]: 0
- Hepatotoxicity (choleostasis) [16]: 0
- Hepatotoxicity (granulomatous hepatitis) [17]: 0

Compound: CCN(CCCc1ccccc1)CCCc1ccccc1 [ALVERINE]
- Hepatotoxicity (steatosis) [1]: 0
- Hepatotoxicity (moderate) [2]: 0
- Hepatotoxicity (time to onset) [3]: 4 days - 40 days
- Hepatotoxicity (malignant tumour) [4]: 0
- Hepatotoxicity (cytolytic) [5]: 2
- Hepatotoxicity (severe hepatitis) [6]: 0
- Hepatotoxicity (acute) [7]: 0%
- Hepatotoxicity (successful reintroduction) [8]: yes
- Hepatotoxicity (chronic liver disease) [9]: 0
- Hepatotoxicity (acute) [10]: 2
- Hepatotoxicity (association with vascular disease) [11]: 0
- Hepatotoxicity (comment) [12]: AC_ANTI-N
- Hepatotoxicity (moderate) [13]: 0%
- Hepatotoxicity (cirrhosis) [14]: 0
- Hepatotoxicity (benign tumour) [15]: 0
- Hepatotoxicity (choleostasis) [16]: 0
- Hepatotoxicity (granulomatous hepatitis) [17]: 0
